{
  "source": "PubChem BioAssay (NCI)",
  "test_in_all_cases": "inhibition of tumour cell growth, NCI panel, 384-well format",
  "key": {"[1]": {"tested_on": "IGROV1 ovarian"}, "[2]": {"tested_on": "SK-MEL-5 melanoma"}, "[3]": {"tested_on": "OVCAR-5 ovarian"}, "[4]": {"tested_on": "OVCAR-8 ovarian"}, "[5]": {"tested_on": "T-47D breast"}, "[6]": {"tested_on": "MDA-MB-435 melanoma"}, "[7]": {"tested_on": "HCT-116 colon"}, "[8]": {"tested_on": "HL-60(TB) leukemia"}, "[9]": {"tested_on": "A498 renal"}, "[10]": {"tested_on": "HOP-92 NSCLC"}, "[11]": {"tested_on": "HT29 colon"}, "[12]": {"tested_on": "U251 glioblastoma"}, "[13]": {"tested_on": "SNB-75 CNS"}, "[14]": {"tested_on": "RPMI-8226 leukemia"}, "[15]": {"tested_on": "SF-539 CNS"}, "[16]": {"tested_on": "NCI-H226 lung"}, "[17]": {"tested_on": "LOX IMVI melanoma"}, "[18]": {"tested_on": "ACHN renal"}, "[19]": {"tested_on": "UACC-257 melanoma"}, "[20]": {"tested_on": "MCF7 breast"}, "[21]": {"tested_on": "NCI-H460 NSCLC"}, "[22]": {"tested_on": "PC-3 prostate"}, "[23]": {"tested_on": "OVCAR-4 ovarian"}, "[24]": {"tested_on": "MDA-MB-468 breast"}, "[25]": {"tested_on": "KM12 colon"}, "[26]": {"tested_on": "HOP-62 NSCLC"}, "[27]": {"tested_on": "SNB-19 CNS"}, "[28]": {"tested_on": "SF-268 CNS"}, "[29]": {"tested_on": "MOLT-4 leukemia"}, "[30]": {"tested_on": "NCI-H522 lung"}, "[31]": {"tested_on": "SN12C renal"}, "[32]": {"tested_on": "COLO 205 colon"}, "[33]": {"tested_on": "CAKI-1 renal"}, "[34]": {"tested_on": "TK-10 renal"}, "[35]": {"tested_on": "BT-549 breast"}, "[36]": {"tested_on": "SK-OV-3 ovarian"}, "[37]": {"tested_on": "SR leukemia"}, "[38]": {"tested_on": "SK-MEL-28 melanoma"}, "[39]": {"tested_on": "HCT-15 colon"}, "[40]": {"tested_on": "DU-145 prostate"}, "[41]": {"tested_on": "NCI-H322M lung"}, "[42]": {"tested_on": "OVCAR-3 ovarian"}, "[43]": {"tested_on": "HS 578T breast"}, "[44]": {"tested_on": "A549 NSCLC"}, "[45]": {"tested_on": "NCI/ADR-RES ovarian"}, "[46]": {"tested_on": "EKVX NSCLC"}, "[47]": {"tested_on": "MDA-MB-231 breast"}, "[48]": {"tested_on": "HCC-2998 colon"}, "[49]": {"tested_on": "SF-295 CNS"}},
  "note": "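At the GI50, growth is halved. At the TGI there is no net growth.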",
  "data": [
    {"smiles": "FC(F)c1nc2ccccc2n1-c1nc(N2CCOCC2)nc(N2CCOCC2)n1", "values": [
      {"measurement": "GI50", "setting": "[1]", "value": 44, "unit": "nM"},
      {"measurement": "TGI", "setting": "[1]", "value": 237, "unit": "nM"},
      {"measurement": "GI50", "setting": "[2]", "value": 191, "unit": "nM"},
      {"measurement": "TGI", "setting": "[2]", "value": 1290, "unit": "nM"},
      {"measurement": "GI50", "setting": "[3]", "value": 133, "unit": "nM"},
      {"measurement": "TGI", "setting": "[3]", "value": 759, "unit": "nM"},
      {"measurement": "GI50", "setting": "[4]", "value": 641, "unit": "nM"},
      {"measurement": "TGI", "setting": "[4]", "value": "> 100000", "unit": "nM"},
      {"measurement": "GI50", "setting": "[5]", "value": 171, "unit": "nM"},
      {"measurement": "TGI", "setting": "[5]", "value": 5380, "unit": "nM"},
      {"measurement": "GI50", "setting": "[6]", "value": 918, "unit": "nM"},
      {"measurement": "TGI", "setting": "[6]", "value": 4750, "unit": "nM"},
      {"measurement": "GI50", "setting": "[7]", "value": 1350, "unit": "nM"},
      {"measurement": "TGI", "setting": "[7]", "value": "> 100000", "unit": "nM"},
      {"measurement": "GI50", "setting": "[8]", "value": 138, "unit": "nM"},
      {"measurement": "TGI", "setting": "[8]", "value": 896, "unit": "nM"},
      {"measurement": "GI50", "setting": "[9]", "value": 101, "unit": "nM"},
      {"measurement": "TGI", "setting": "[9]", "value": 351, "unit": "nM"},
      {"measurement": "GI50", "setting": "[10]", "value": 303, "unit": "nM"},
      {"measurement": "TGI", "setting": "[10]", "value": "> 100000", "unit": "nM"},
      {"measurement": "GI50", "setting": "[11]", "value": 454, "unit": "nM"},
      {"measurement": "TGI", "setting": "[11]", "value": "> 100000", "unit": "nM"},
      {"measurement": "GI50", "setting": "[12]", "value": 1230, "unit": "nM"},
      {"measurement": "TGI", "setting": "[12]", "value": "> 100000", "unit": "nM"},
      {"measurement": "GI50", "setting": "[13]", "value": 154, "unit": "nM"},
      {"measurement": "TGI", "setting": "[13]", "value": 13900, "unit": "nM"},
      {"measurement": "GI50", "setting": "[14]", "value": 172, "unit": "nM"},
      {"measurement": "TGI", "setting": "[14]", "value": 608, "unit": "nM"},
      {"measurement": "GI50", "setting": "[15]", "value": 475, "unit": "nM"},
      {"measurement": "TGI", "setting": "[15]", "value": "> 100000", "unit": "nM"},
      {"measurement": "GI50", "setting": "[16]", "value": 324, "unit": "nM"},
      {"measurement": "TGI", "setting": "[16]", "value": 3020, "unit": "nM"},
      {"measurement": "GI50", "setting": "[17]", "value": 598, "unit": "nM"},
      {"measurement": "TGI", "setting": "[17]", "value": 4150, "unit": "nM"},
      {"measurement": "GI50", "setting": "[18]", "value": 187, "unit": "nM"},
      {"measurement": "TGI", "setting": "[18]", "value": 1410, "unit": "nM"},
      {"measurement": "GI50", "setting": "[19]", "value": 278, "unit": "nM"},
      {"measurement": "TGI", "setting": "[19]", "value": 4260, "unit": "nM"},
      {"measurement": "GI50", "setting": "[20]", "value": 84.3, "unit": "nM"},
      {"measurement": "TGI", "setting": "[20]", "value": "> 100000", "unit": "nM"},
      {"measurement": "GI50", "setting": "[21]", "value": 224, "unit": "nM"},
      {"measurement": "TGI", "setting": "[21]", "value": 2140, "unit": "nM"},
      {"measurement": "GI50", "setting": "[22]", "value": 56, "unit": "nM"},
      {"measurement": "TGI", "setting": "[22]", "value": 825, "unit": "nM"},
      {"measurement": "GI50", "setting": "[23]", "value": 25.2, "unit": "nM"},
      {"measurement": "TGI", "setting": "[23]", "value": 1530, "unit": "nM"},
      {"measurement": "GI50", "setting": "[24]", "value": 202, "unit": "nM"},
      {"measurement": "TGI", "setting": "[24]", "value": 2090, "unit": "nM"},
      {"measurement": "GI50", "setting": "[25]", "value": 1400, "unit": "nM"},
      {"measurement": "TGI", "setting": "[25]", "value": "> 100000", "unit": "nM"},
      {"measurement": "GI50", "setting": "[26]", "value": 420, "unit": "nM"},
      {"measurement": "TGI", "setting": "[26]", "value": 3960, "unit": "nM"},
      {"measurement": "GI50", "setting": "[27]", "value": 3370, "unit": "nM"},
      {"measurement": "TGI", "setting": "[27]", "value": "> 100000", "unit": "nM"},
      {"measurement": "GI50", "setting": "[28]", "value": 1540, "unit": "nM"},
      {"measurement": "TGI", "setting": "[28]", "value": "> 100000", "unit": "nM"},
      {"measurement": "GI50", "setting": "[29]", "value": 166, "unit": "nM"},
      {"measurement": "TGI", "setting": "[29]", "value": 716, "unit": "nM"},
      {"measurement": "GI50", "setting": "[30]", "value": 198, "unit": "nM"},
      {"measurement": "TGI", "setting": "[30]", "value": 894, "unit": "nM"},
      {"measurement": "GI50", "setting": "[31]", "value": 19.8, "unit": "nM"},
      {"measurement": "TGI", "setting": "[31]", "value": 380, "unit": "nM"},
      {"measurement": "GI50", "setting": "[32]", "value": 246, "unit": "nM"},
      {"measurement": "TGI", "setting": "[32]", "value": 1980, "unit": "nM"},
      {"measurement": "GI50", "setting": "[33]", "value": 216, "unit": "nM"},
      {"measurement": "TGI", "setting": "[33]", "value": "> 100000", "unit": "nM"},
      {"measurement": "GI50", "setting": "[34]", "value": 224, "unit": "nM"},
      {"measurement": "TGI", "setting": "[34]", "value": 1740, "unit": "nM"},
      {"measurement": "GI50", "setting": "[35]", "value": 207, "unit": "nM"},
      {"measurement": "TGI", "setting": "[35]", "value": 1790, "unit": "nM"},
      {"measurement": "GI50", "setting": "[36]", "value": 282, "unit": "nM"},
      {"measurement": "TGI", "setting": "[36]", "value": 5000, "unit": "nM"},
      {"measurement": "GI50", "setting": "[37]", "value": 147, "unit": "nM"},
      {"measurement": "TGI", "setting": "[37]", "value": 896, "unit": "nM"},
      {"measurement": "GI50", "setting": "[38]", "value": 402, "unit": "nM"},
      {"measurement": "TGI", "setting": "[38]", "value": "> 100000", "unit": "nM"},
      {"measurement": "GI50", "setting": "[39]", "value": 330, "unit": "nM"},
      {"measurement": "TGI", "setting": "[39]", "value": "> 100000", "unit": "nM"},
      {"measurement": "GI50", "setting": "[40]", "value": 352, "unit": "nM"},
      {"measurement": "TGI", "setting": "[40]", "value": 2390, "unit": "nM"},
      {"measurement": "GI50", "setting": "[41]", "value": 281, "unit": "nM"},
      {"measurement": "TGI", "setting": "[41]", "value": 1980, "unit": "nM"},
      {"measurement": "GI50", "setting": "[42]", "value": 174, "unit": "nM"},
      {"measurement": "TGI", "setting": "[42]", "value": 1080, "unit": "nM"},
      {"measurement": "GI50", "setting": "[43]", "value": 202, "unit": "nM"},
      {"measurement": "TGI", "setting": "[43]", "value": 2140, "unit": "nM"},
      {"measurement": "GI50", "setting": "[44]", "value": 645, "unit": "nM"},
      {"measurement": "TGI", "setting": "[44]", "value": "> 100000", "unit": "nM"},
      {"measurement": "GI50", "setting": "[45]", "value": 507, "unit": "nM"},
      {"measurement": "TGI", "setting": "[45]", "value": "> 100000", "unit": "nM"},
      {"measurement": "GI50", "setting": "[46]", "value": 169, "unit": "nM"},
      {"measurement": "TGI", "setting": "[46]", "value": 1550, "unit": "nM"},
      {"measurement": "GI50", "setting": "[47]", "value": 957, "unit": "nM"},
      {"measurement": "TGI", "setting": "[47]", "value": "> 100000", "unit": "nM"},
      {"measurement": "GI50", "setting": "[48]", "value": 23.1, "unit": "nM"},
      {"measurement": "TGI", "setting": "[48]", "value": 2120, "unit": "nM"},
      {"measurement": "GI50", "setting": "[49]", "value": 250, "unit": "nM"},
      {"measurement": "TGI", "setting": "[49]", "value": 2370, "unit": "nM"}
    ]}
  ]
}
